According to patent US12077503B2, “Substituted cyclic amides and their use as herbicides” (FMC CORPORATION, priority 2015, dated 2024):

What was measured:
Format in all cases: in vivo
rice (Oryra sativa) = assay: Test B flooded paddy test
In short: (§1)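 Greenhouse paddy pots with 2-leaf stage plants received compound by direct addition to floodwater 3 cm deep, kept at that level. Scored visually at 13–15 d versus controls (0 no effect; 100 complete control).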

[1] = system: ducksalad (Heteranthera limosa); assay: Test B flooded paddy test
In short: as §1

[2] = system: sedge, umbrella (small-flower umbrella sedge, Cyperus difformis); assay: Test B flooded paddy test
In short: as §1

[3] = system: barnyardgrass (Echinochloa crus-galli); assay: Test B flooded paddy test
In short: as §1

Kochia (Kochia scoparia) [4] = assay: Test A preemergence
In short: (§2)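 Seeds sprayed preemergence with a directed soil spray, or plants at 2 to 10 cm height and one- to two-leaf stage sprayed postemergence, with test chemicals in a non-phytotoxic solvent mixture containing surfactant, in loam soil–sand blend. Injury rated visually against untreated controls after about 10 d in greenhouse, 0 (no effect) to 100 (complete control).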

[5] = system: ragweed (common ragweed, Ambrosia elatior); assay: Test A preemergence
In short: as §2

[6] = system: ryegrass, Italian (Italian ryegrass, Lolium multiflorum); assay: Test A preemergence
In short: as §2

[7] = system: pigweed (Amaranthus retroflexus); assay: Test A preemergence
[8] = system: giant foxtail (Setaria faberii); assay: Test A preemergence
In short: as §2

[9] = system: barnyardgrass (Echinochloa crus-galli); assay: Test A preemergence
In short: as §2

[10] = system: ducksalad (Heteranthera limosa); assay: Test C flooded paddy test; conditions: Flood, 0 is no effect, 100 is complete control
From the text: (§3) Plant species in the flooded paddy test consisted of rice (Oryza sativa), sedge, umbrella (small-flower umbrella sedge, Cyperus difformis), ducksalad (Heteranthera limosa), and barnyardgrass (Echinochloa crus-galli) grown to the 2-leaf stage for testing. At time of treatment, test pots were flooded to 3 cm above the soil surface, treated by application of test compounds directly to the paddy water, and then maintained at that water depth for the duration of the test. Treated plants and controls were maintained in a greenhouse for 13 to 15 d, after which time all species were compared to controls and visually evaluated. Plant response ratings, summarized in Table C, are based on a scale of 0 to 100 where 0 is no effect and 100 is complete control. A dash (-) response means no test result.

[11] = system: sedge, umbrella (small-flower umbrella sedge, Cyperus difformis); assay: Test C flooded paddy test; conditions: Flood, 0 is no effect, 100 is complete control
From the text: as §3

rice (Oryza sativa) = assay: Test C flooded paddy test; conditions: Flood, 0 is no effect, 100 is complete control
From the text: as §3

[12] = system: barnyardgrass (Echinochloa crus-galli); assay: Test C flooded paddy test; conditions: Flood, 0 is no effect, 100 is complete control
From the text: as §3

Kochia (Kochia scoparia) [13] = assay: Test A postemergence
In short: as §2

[14] = system: wheat (Triticum aestivum); assay: Test A postemergence
In short: as §2

[15] = system: blackgrass (Alopecurus myosuroides); assay: Test A postemergence
In short: as §2

[16] = system: ragweed (common ragweed, Ambrosia elatior); assay: Test A postemergence
In short: as §2

corn (Zea mays) = assay: Test A postemergence
In short: as §2

[17] = system: ryegrass, Italian (Italian ryegrass, Lolium multiflorum); assay: Test A postemergence
In short: as §2

[18] = system: pigweed (Amaranthus retroflexus); assay: Test A postemergence
In short: as §2

[19] = system: giant foxtail (Setaria faberii); assay: Test A postemergence
In short: as §2

[20] = system: barnyardgrass (Echinochloa crus-galli); assay: Test A postemergence
In short: as §2

[21] = system: Galium (catchweed bedstraw, Galium aparine); assay: Test A postemergence
In short: as §2

[22] = Flood, 250 g ai/ha, 0 to 100 scale where 0 is no effect and 100 is complete control, 13 to 15 d
[23] = 125 g ai/ha, preemergence, 0 to 100 scale (0 no effect, 100 complete control)
[24] = Preemergence, 500 g ai/ha, visual injury approx. 10 d
[25] = 125 g ai/ha, postemergence, visual injury rating on 0 to 100 scale (0 no effect, 100 complete control), approx. 10 d
[26] = 500 g ai/ha, postemergence, 0 to 100 scale, 0 no effect, 100 complete control
[27] = Bassia scoparia, post-emergence, 240 h, read-out: Plant response rating, Kochia
[28] = Triticum aestivum, post-emergence, 240 h, read-out: Plant response rating, Wheat
[29] = Alopecurus myosuroides, post-emergence, 240 h, read-out: Plant response rating, Blackgrass
[30] = Ambrosia artemisiifolia, post-emergence, 240 h, read-out: Plant response rating, Ragweed
[31] = Zea mays, post-emergence, 240 h, read-out: Plant response rating, Corn
[32] = Lolium multiflorum, post-emergence, 240 h, read-out: Plant response rating, Ryegrass, Italian
[33] = Amaranthus retroflexus, post-emergence, 240 h, read-out: Plant response rating, Pigweed
[34] = Setaria faberi, post-emergence, 240 h, read-out: Plant response rating, Foxtail, Giant
[35] = Echinochloa crus-galli, post-emergence, 240 h, read-out: Plant response rating, Barnyardgrass
[36] = Galium, post-emergence, 240 h, read-out: Plant response rating, Galium

SMILES: O=C1NCC(c2ccc(F)cc2F)C1C(=O)Nc1cccc(F)c1F (stereo not shown) [Compound 455]
- Plant response rating, Rice (rice (Oryra sativa); [22]): 0
- Plant response rating, Ducksalad [1, 22]: 100
- Plant response rating, Sedge, Umbrella [2, 22]: 0
- Plant response rating, Barnyardgrass [3, 22]: 75
- Plant response rating, Kochia (Kochia (Kochia scoparia) [4]; [23]): 20
- Kochia plant response rating (0 to 100 scale, 0 is no effect, 100 is complete control) (Kochia (Kochia scoparia) [4]; [24]): 50
- Plant response rating, Ragweed [5, 23]: 0
- Ragweed plant response rating (0 to 100 scale, 0 is no effect, 100 is complete control) [5, 24]: 0
- Plant response rating, Ryegrass, Italian [6, 23]: 0
- Ryegrass, Italian plant response rating (0 to 100 scale, 0 is no effect, 100 is complete control) [6, 24]: 0
- Plant response rating, Pigweed [7, 23]: 0
- Pigweed plant response rating (0 to 100 scale, 0 is no effect, 100 is complete control) [7, 24]: 50
- Plant response rating, Foxtail, Giant [8, 23]: 80
- Foxtail, Giant plant response rating (0 to 100 scale, 0 is no effect, 100 is complete control) [8, 24]: 90
- Plant response rating, Barnyardgrass [9, 23]: 70
- Barnyardgrass plant response rating (0 to 100 scale, 0 is no effect, 100 is complete control) [9, 24]: 90
- Plant response rating (scale of 0 to 100), Ducksalad ([10]; 31 g ai/ha): 0
- Plant response rating (scale of 0 to 100), Ducksalad ([10]; 62 g ai/ha): 40
- Plant response rating (scale of 0 to 100), Ducksalad ([10]; 125 g ai/ha): 80
- Plant response rating (scale of 0 to 100), Ducksalad ([10]; 250 g ai/ha): 100
- Plant response rating (scale of 0 to 100), Sedge, Umbrella ([11]; 31 g ai/ha): 0
- Plant response rating (scale of 0 to 100), Sedge, Umbrella ([11]; 62 g ai/ha): 0
- Plant response rating (scale of 0 to 100), Sedge, Umbrella ([11]; 125 g ai/ha): 0
- Plant response rating (scale of 0 to 100), Sedge, Umbrella ([11]; 250 g ai/ha): 0
- Plant response rating (scale of 0 to 100), Rice (rice (Oryza sativa); 31 g ai/ha): 0
- Plant response rating (scale of 0 to 100), Rice (rice (Oryza sativa); 62 g ai/ha): 0
- Plant response rating (scale of 0 to 100), Rice (rice (Oryza sativa); 125 g ai/ha): 0
- Plant response rating (scale of 0 to 100), Rice (rice (Oryza sativa); 250 g ai/ha): 0
- Plant response rating (scale of 0 to 100), Barnyardgrass ([12]; 31 g ai/ha): 0
- Plant response rating (scale of 0 to 100), Barnyardgrass ([12]; 62 g ai/ha): 0
- Plant response rating (scale of 0 to 100), Barnyardgrass ([12]; 125 g ai/ha): 0
- Plant response rating (scale of 0 to 100), Barnyardgrass ([12]; 250 g ai/ha): 50
- Kochia plant response rating (Kochia (Kochia scoparia) [13]; [25]): 60
- Plant response rating, Kochia (Kochia (Kochia scoparia) [13]; [26]): 70
- Wheat plant response rating [14, 25]: 0
- Plant response rating, Wheat [14, 26]: 30
- Blackgrass plant response rating [15, 25]: 0
- Plant response rating, Blackgrass [15, 26]: 0
- Ragweed plant response rating [16, 25]: 0
- Plant response rating, Ragweed [16, 26]: 0
- Corn plant response rating (corn (Zea mays); [25]): 0
- Plant response rating, Corn (corn (Zea mays); [26]): 0
- Ryegrass, Italian plant response rating [17, 25]: 0
- Plant response rating, Ryegrass, Italian [17, 26]: 0
- Pigweed plant response rating [18, 25]: 50
- Plant response rating, Pigweed [18, 26]: 60
- Foxtail, Giant plant response rating [19, 25]: 70
- Plant response rating, Foxtail, Giant [19, 26]: 80
- Barnyardgrass plant response rating [20, 25]: 70
- Plant response rating, Barnyardgrass [20, 26]: 80
- Galium plant response rating [21, 25]: 30
- Plant response rating, Galium [21, 26]: 70

SMILES: COc1ccc([C@H]2CN(C)C(=O)[C@@H]2C(=O)Nc2ccccc2SC)cc1F [Compound 1022]
- pest or weed control at 250 g/ha (rice (Oryra sativa); Oryza sativa, read-out: Rice plant response rating): 0%
- pest or weed control at 250 g/ha ([1]; Heteranthera limosa, read-out: Ducksalad plant response rating): 75%
- pest or weed control at 250 g/ha ([2]; Cyperus difformis, read-out: Sedge, Umbrella plant response rating): 0%
- pest or weed control at 250 g/ha ([3]; Echinochloa crus-galli, read-out: Barnyardgrass plant response rating): 0%
- pest or weed control at 500 g/ha (Kochia (Kochia scoparia) [4]; Bassia scoparia, pre-emergence, 240 h, read-out: Kochia plant response rating): 80%
- pest or weed control at 125 g/ha (Kochia (Kochia scoparia) [4]; Bassia scoparia, pre-emergence, 240 h, read-out: Kochia plant response rating (0 to 100 scale, 0 is no effect, 100 is complete control)): 70%
- pest or weed control at 500 g/ha ([5]; Ambrosia artemisiifolia, pre-emergence, 240 h, read-out: Ragweed plant response rating): 0%
- pest or weed control at 125 g/ha ([5]; Ambrosia artemisiifolia, pre-emergence, 240 h, read-out: Ragweed plant response rating (0 to 100 scale, 0 is no effect, 100 is complete control)): 0%
- pest or weed control at 500 g/ha ([6]; Lolium multiflorum, pre-emergence, 240 h, read-out: Ryegrass, Italian plant response rating): 50%
- pest or weed control at 125 g/ha ([6]; Lolium multiflorum, pre-emergence, 240 h, read-out: Ryegrass, Italian plant response rating (0 to 100 scale, 0 is no effect, 100 is complete control)): 0%
- pest or weed control at 500 g/ha ([7]; Amaranthus retroflexus, pre-emergence, 240 h, read-out: Pigweed plant response rating): 70%
- pest or weed control at 125 g/ha ([7]; Amaranthus retroflexus, pre-emergence, 240 h, read-out: Pigweed plant response rating (0 to 100 scale, 0 is no effect, 100 is complete control)): 30%
- pest or weed control at 500 g/ha ([8]; Setaria faberi, pre-emergence, 240 h, read-out: Foxtail, Giant plant response rating): 100%
- pest or weed control at 125 g/ha ([8]; Setaria faberi, pre-emergence, 240 h, read-out: Foxtail, Giant plant response rating (0 to 100 scale, 0 is no effect, 100 is complete control)): 100%
- pest or weed control at 500 g/ha ([9]; Echinochloa crus-galli, pre-emergence, 240 h, read-out: Barnyardgrass plant response rating): 100%
- pest or weed control at 125 g/ha ([9]; Echinochloa crus-galli, pre-emergence, 240 h, read-out: Barnyardgrass plant response rating (0 to 100 scale, 0 is no effect, 100 is complete control)): 60%
- pest or weed control at 125 g/ha (Kochia (Kochia scoparia) [13]; [27]): 30%
- pest or weed control at 500 g/ha (Kochia (Kochia scoparia) [13]; [27]): 60%
- plant injury at 125 g/ha [14, 28]: 0%
- plant injury at 500 g/ha [14, 28]: 30%
- pest or weed control at 125 g/ha [15, 29]: 0%
- pest or weed control at 500 g/ha [15, 29]: 0%
- pest or weed control at 125 g/ha [16, 30]: 0%
- pest or weed control at 500 g/ha [16, 30]: 0%
- plant injury at 125 g/ha (corn (Zea mays); [31]): 0%
- plant injury at 500 g/ha (corn (Zea mays); [31]): 20%
- pest or weed control at 125 g/ha [17, 32]: 0%
- pest or weed control at 500 g/ha [17, 32]: 30%
- pest or weed control at 125 g/ha [18, 33]: 0%
- pest or weed control at 500 g/ha [18, 33]: 0%
- pest or weed control at 125 g/ha [19, 34]: 50%
- pest or weed control at 500 g/ha [19, 34]: 70%
- pest or weed control at 125 g/ha [20, 35]: 60%
- pest or weed control at 500 g/ha [20, 35]: 100%
- pest or weed control at 125 g/ha [21, 36]: 30%
- pest or weed control at 500 g/ha [21, 36]: 50%
